Laboratory results reported in ChEMBL document CHEMBL1142129, “Effect of carbapenem administration on establishment of intestinal colonization by vancomycin-resistant enterococci and Klebsiella pneumoniae in mice” (Antimicrob Agents Chemother, 2007).
≈ marks a conversion by molar mass, not a printed value. Each block holds one compound with its values, some of them ahead of it. Calls of active or inactive are those of the source. No cut-off for these calls is given here.

Tests used:
[1] = Drug level in mouse stool after 3 days; type: ADME, organism-based; settings: read-out: Drug uptake
[2] = system: Bacteroides sp.; experiment: Inhibition of intestinal colonization of Bacteroides sp in mouse assessed in stool after 3 days relative to saline; type: functional, organism-based
[3] = Drug level in mouse stool after 5 days; type: ADME, organism-based; settings: read-out: Drug uptake
[4] = system: Enterococcus; experiment: Overgrowth of enterococci in mouse intestine assessed in stool after 3 days; type: functional, organism-based
[5] = system: Klebsiella pneumoniae; experiment: Inhibition of growth in Klebsiella pneumoniae P62 by mouse colonization study; type: functional
[6] = system: Klebsiella pneumoniae; experiment: Overgrowth of Klebsiella pneumonia growth in mouse intestine assessed in stool 2 days after 5 day treatment relative to saline; type: functional, organism-based
[7] = system: Enterococcus; experiment: Inhibition of growth in Vancomycin-resistant Enterococci C68 by mouse colonization study; type: functional
[8] = system: Enterococcus; experiment: Overgrowth of vancomycin-resistant enterococci growth in mouse intestine assessed in stool 2 days after 5 days treatment relative to saline; type: functional, organism-based
[9] = system: Enterococcus; experiment: Overgrowth of vancomycin-resistant enterococci growth in mouse intestine assessed in stool 2 days after […] treatment relative to saline; type: functional, organism-based

SMILES: C[C@@H](O)[C@H]1C(=O)N2C(C(=O)O)=C(S[C@@H]3CN[C@H](C(=O)Nc4cccc(C(=O)O)c4)C3)[C@H](C)[C@H]12 [ERTAPENEM]
- concentration at 72 h [1]: < 5000 ng/g
- Activity [2]: Active
- concentration at 120 h [3]: 10500 ng/g
- Activity [4]: Active
- MIC [5]: < 0.25 µg/mL
- Activity [6]: inactive
- MIC [7]: > 1020 µg/mL
- Activity [8]: inactive

SMILES: CO/N=C(\C(=O)N[C@@H]1C(=O)N2C(C(=O)O)=C(CSc3nc(=O)c(O)nn3C)CS[C@H]12)c1csc(N)n1 [CEFTRIAXONE]
- Activity [2]: Active
- Activity [4]: Active
- MIC [5]: 4 µg/mL (≈ 7.21 µM)
- Activity [6]: Active
- MIC [7]: > 10000 µg/mL
- Activity [9]: Active
- Activity [8]: Active

- concentration at 72 h [1]: 93800 ng/g
SMILES: CO/N=C(\C(=O)N[C@@H]1C(=O)N2C(C(=O)O)=C(CSc3nc(=O)c(=O)[nH]n3C)CS[C@H]12)c1csc(N)n1 [CEFTRIAXONE]
